Laboratory results taken from patent US8603545B2, “Cosmetic and pharmaceutical uses of an extract of a plant belonging to the genus Buchholzia” (BASF Beauty Care Solutions France S.A.S., priority 2004, dated 2013).

Assays:
Assay type in all cases: cell-based
human keratinocytes = assay: Inhibition of UVB effect on human keratinocytes
Excerpt: Aim of the experiment: Determination of the potential of the tested ingredient to reduce negative effects of UV-B radiation on the survival rate of human keratinocytes. It is well known that UV-B radiation induces a cutaneous inflammation by stimulation of enzymes such as phospholipase A2 (PLA2). This enzyme catalyses the release of arachidonic acid which is a precursor of mediators of inflammation like the prostaglandin PGE2. Moreover this membrane stress results in the release of a cytoplasmic enzyme: lactate dehydrogenase (LDH). • Seeding of human keratinocytes in a growth medium • Incubation for 3 days at 37° C., CO2=5% (atmosphere: 5% carbon dioxide in air) • Exchange of the growth medium by balanced salt solution with a range of concentration of ingredients to be tested • Irradiation of keratinocytes by UV-B: 30 mJ/cm^2 • Incubation for 1 day at 37° C., CO2=5% • Recording of cell number by DNA measurement with a fluorescent probe • Recording of the level of released LDH (by an enzymatic reaction) and released PGE2 (by ELISA method) Results in % against control (average of 2 assays in triplicate): […]

B16 melanocytes = assay: Inhibition of melanin synthesis, efficacy test on B16 melanocytes
Experimental: Aim of the experiment: to evaluate the potential of compounds to lower the melanin synthesis; the compounds have been tested on a cell culture of melanocytes called B16. • Seeding of melanocytes in growth medium • Incubation for 3 days at 37° C., CO2=5% (atmosphere: 5% carbon dioxide in air) • Exchange of the growth medium by a medium with a range of concentration of ingredients to be tested • Incubation for 3 days at 37° C., CO2=5% (atmosphere: 5% carbon dioxide in air) • Recording of Cellular levels of protein by Bradford's method • Recording of melanin by a spectrophotometric method (OD at 475 nm) Results in % against control (average of 2 assays in triplicate): […]

human fibroblasts = assay: Inhibition of UVA effect on human fibroblasts
Experimental: Aim of the experiment: Determination of the potential of the tested ingredient to reduce negative effects of UV-A radiation on the survival rate of human fibroblasts.
• Seeding of human fibroblasts in a growth medium • Incubation for 3 days at 37° C., CO2=5% (atmosphere: 5% carbon dioxide in air) • Exchange of the growth medium by a medium with a range of concentration of ingredients to be tested • Incubation for 2 days at 37° C., CO2=5% • Exchange of the medium with ingredients by a balanced salt solution and UV-A irradiation (20 J/cm^2) • Recording of released MDA levels by spectro-fluorimetry. (MDA (malonaldialdehyde) is a product of oxidative degradation of lipids from cell membranes) • Recording of intracellular proteins by Bradford's method
Results in % against control (average of 2 assays in triplicate): […]

[1] = UV-B 30 mJ/cm2, dose 0.03 % w/v
[2] = UV-A 20 J/cm2, dose 0.0003 % w/v

CC(=O)Oc1ccccc1C(=O)O [Aspirin ®, Aspirin]
level of cell number from UV-B irradiated keratinocytes (in words) (human keratinocytes): strongly increased | level of released LDH from UV-B irradiated keratinocytes (in words) (human keratinocytes): strongly decreased | level of released PGE2 from UV-B irradiated keratinocytes (in words) (human keratinocytes): strongly decreased | Cell number (human keratinocytes; [1]): 59 % against control | Level of released LDH (human keratinocytes; [1]): 8 % against control | Level of released PGE2 (human keratinocytes; [1]): 0 % against control

O=c1cc(CO)occ1O [kojic acid]
rate of released melanin from treated B16 melanocytes (in words) (B16 melanocytes): strongly decreased | Rate of cellular proteins (B16 melanocytes; dose 0.03 % w/v): 117 % against control | Rate of melanin (B16 melanocytes; dose 0.03 % w/v): 34 % against control

Vitamin E
rate of released MDA from UV-A irradiated fibroblasts (in words) (human fibroblasts): strongly decreased | Intracellular proteins (human fibroblasts; [2]): 103 % against control | Rate of released MDA (human fibroblasts; [2]): 25 % against control
